Results taken from PubChem BioAssay (NCI).
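Test compounds were applied to cells in 96-well plates for 48 hours at 5 doses. TGI: concentration producing complete growth inhibition.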

Legend:
Assay in all cases: inhibition of tumour cell growth, NCI panel, 48 h
HCT-116 colon = system: HCT-116 colon
PC-3 prostate = system: PC-3 prostate
UACC-257 melanoma = system: UACC-257 melanoma
DU-145 prostate = system: DU-145 prostate
NCI-H226 lung = system: NCI-H226 lung
SK-MEL-2 melanoma = system: SK-MEL-2 melanoma
SW-620 colon = system: SW-620 colon
NCI-H460 lung = system: NCI-H460 lung
ACHN renal = system: ACHN renal
SK-MEL-28 melanoma = system: SK-MEL-28 melanoma

Compound	TGI (HCT-116 colon) [µM]	TGI (PC-3 prostate) [µM]	TGI (UACC-257 melanoma) [µM]	TGI (DU-145 prostate) [µM]	TGI (NCI-H226 lung) [µM]	TGI (SK-MEL-2 melanoma) [µM]	TGI (SW-620 colon) [µM]	TGI (NCI-H460 lung) [µM]	TGI (ACHN renal) [µM]	TGI (SK-MEL-28 melanoma) [µM]
O=C(CN1CCCCC1)Nc1ccc2c(c1)C1Oc3ccccc3CC1CO2 (stereo not given)	35.2	35	36	> 100	55.8	35.5	39.7			
Cc1ccc(S(=O)(=O)N/N=C2\CC3CC4CCC2C4C3)cc1 (stereo not given)	> 100	> 100	> 100	> 100	> 100		> 100	> 100	> 100	> 100
O=C(c1cccs1)N1CCCN(C(=O)c2cccs2)C1=S	> 100	> 100	> 100	> 100	> 100	> 100	> 100		> 100	> 100
COC(=O)CNC(=O)CCC(C)[C@H]1CCC2C3C(C[C@H](OC(C)=O)[C@@]21C)[C@@]1(C)CCC2(C[C@H]1C[C@H]3OC(C)=O)OOC1(CC[C@]3(C)C4C[C@H](OC(C)=O)[C@@]5(C)C(CC[C@@H]5C(C)CCC(=O)NCC(=O)OC)C4[C@H](OC(C)=O)C[C@@H]3C1)OO2 (stereo not given in full)	9.1	8.69	2.74		3.46	1.66	> 50	26.4	1.57	9.52
CCCCSC1=N/C(=C\c2ccc(N(C)C)cc2)C(=O)N1	74.9	19.3	56.7	> 100	54.2		> 100	51.6	> 100	> 100
CCCCCCCCP(=O)(O)OP(=O)(O)OCC1OC(n2ccc(N)nc2=O)C(O)C1O (stereo not given)	> 100	> 100	> 100		> 100	> 100	> 100	> 100	> 100	> 100
CC1SC2(CCCCC2)N(NC(=O)CSc2nc3ccc(Cl)cc3c(=O)n2-c2ccccc2)C1=O (stereo not given)	27.2	56.1	55.5	85.8		31.8	75.2	42.7	83.9	88.4
Cc1ccc(-c2cc[n+]3c(n2)oc2ccccc23)cc1	> 100		59.2	> 100		46.6	> 100	> 100	99.4	57.8
CCOC1NC(=O)Oc2cc3ccccc3cc21 (stereo not given)	> 100	> 100	> 100	> 100	> 100		> 100	> 100	> 100	> 100
CCN(CC)CCn1c(=O)c2c(C)c3oc4ccccc4oc3c(C)c2c1=O	> 100	> 100	> 100		> 100	> 100	> 100	> 100	> 100	
CN(CCCNC(=O)c1nn(C)c2c1Cc1ccccc1-2)CCCNC(=O)c1nn(C)c2c1Cc1ccccc1-2	30.2	34.1	30.1	32.4		32	27.9	37.6	31	38.2
